Read-outs that look alike come from different tables or passages of the source.
Columns and labels:
[1] = target: T1, Lp-PLA2 in human plasma (Homo sapiens, UniProt Q13093); assay: Lp-PLA2 human plasma assay (Thio-PAF assay); format: biochemical; details: pooled human plasma; lower bounds; read-out: pIC50 values in the thio-PAF assay (converted)
T1 construct: from tissue; host or cells: pooled human plasma
T1 sequence (Q13093 22-441): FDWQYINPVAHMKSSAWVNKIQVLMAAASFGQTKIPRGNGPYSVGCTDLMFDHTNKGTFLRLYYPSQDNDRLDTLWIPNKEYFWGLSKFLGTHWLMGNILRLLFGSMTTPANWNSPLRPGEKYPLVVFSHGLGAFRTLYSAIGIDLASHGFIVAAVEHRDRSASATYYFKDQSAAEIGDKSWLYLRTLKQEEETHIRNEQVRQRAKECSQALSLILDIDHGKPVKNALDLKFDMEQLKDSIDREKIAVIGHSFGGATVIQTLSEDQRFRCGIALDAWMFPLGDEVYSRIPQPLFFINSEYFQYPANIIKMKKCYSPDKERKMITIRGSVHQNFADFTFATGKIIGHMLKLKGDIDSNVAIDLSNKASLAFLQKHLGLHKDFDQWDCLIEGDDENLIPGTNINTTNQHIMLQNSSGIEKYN
Excerpt: (3) Lipoprotein-Associated Phospholipase A2 (Lp-PLA2) Human Plasma Assay (Also Referred to as “Thio-PAF assay”)
The human plasma assay utilizes a thioester analog of PAF (phosphatidylcholine), where hydrolysis yields to the formation of a phospholipid containing a free thiol group. The amount of thiol is quantitated continuously by reacting with CPM (7-diethylamino-3-(4′-maleimidylphenyl)-4-methylcoumarin), a maleimide which increases in fluoresence after Michael addition of thiols. This assay may detect the activity of Lp-PLA2 in human plasma, as determined by specific inhibition by Lp-PLA2 inhibitors.
The thio-PAF assay was run as a quenched 15 μL assay. Compounds source plate was prepared by making 1:3 (by volume) serial dilution of the compounds into pure DMSO on 384-well microplate. 0.01 μL of compounds on compound source plate were transferred to 384 well Greiner 784076 (black) low-volume plates by ECHO liquid dispenser. 8 μL pooled human plasma, which was previously aliquoted and frozen, was added. Plates were centrifuged for 10 sec at 500 rpm. After 30 minutes preincubation, 2 μL of substrate solution comprising 2.5 mM 2-thio-PAF [from ethanol stock], 32 μM CPM [from a DMSO stock] and 3.2 mM NEM (N-ethylmaleimide) [made fresh daily in DMSO] in assay buffer of 50 mM HEPES, pH 7.4, 150 mM NaCl, 1 mM CHAPS was added to 384 well Greiner 784076 (black) low-volume plates by BRAVO liquid handling station. After 2 mins, reaction was quenched with 5 μL of 5% aqueous trifluoroacetic acid (TFA). Plates were covered to protect from light and incubated for 40 min at room temperature. Plates were read at ex: 380/em: 485 using-Envision microplate reader. PIC50 data, curve and QC analysis were conducted by using XLFit module in Excel.

[2] = target: T2, recombinant human Lp-PLA2 (Homo sapiens, UniProt Q13093); assay: Recombinant human Lp-PLA2 assay (rhLp-PLA2, PED6 assay); format: biochemical
T2 sequence (Q13093 22-441): T1 sequence (Q13093 22-441)
Excerpt: (1) Recombinant Human Lp-PLA2 Assay (rhLp-PLA2) (Also Referred to as “PED6” Assay)
N-((6-(2,4-dinitrophenyl)amino)-hexanoyl)-2-(4,4-difluoro-5,7-dimethyl-4-bora-3a,4a-diaza-s-indacene-3-pentanoyl)-1-hexadecanoyl-sn-glycero-3-phosphoethanolamine, triethylammonium salt (PED6) is a commercially available fluorescently-labeled phospholipid, which is commercially available from Invitrogene and Molecular Probes. There is a quenching […] and a Bodipy fluorescein (FL) group in the sn2 position. Upon cleavage with Lp-PLA2, the Bodipy FL group is liberated and then may result in an increase in fluorescence. Inhibitors of Lp-PLA2 therefore prevent this cleavage and no fluorescent increase is observed.
The PED6 assay was run as an unquenched 10 μL assay. The source plate containing the compounds to be tested was prepared by making 1:3 (by volume) serial dilution of the compounds within DMSO on 384-well microplate. Then, 0.01 μL of the compounds on compound source plate were transferred into 384 well Greiner 784076 (black) plates using ECHO liquid dispenser. 5 μL of recombinant human Lp-PLA2 enzyme (4 nM (or […]) rhLp-PLA2 in assay buffer of 50 mM HEPES, pH 7.4, 150 mM NaCl, 1 mM CHAPS) was added to each well of the plate. Plates were centrifuged for 10 sec at 500 rpm. After 30 minutes preincubation, 5 μL of substrate ([…] PED6 [from 5 mM DMSO stock] in assay buffer of 50 mM HEPES, pH 7.4, 150 mM NaCl, 1 mM CHAPS) was added to 384 well Greiner 784076 (black) plates. Plates were centrifuged for 10 sec at 500 rpm. The plate was covered to protect it from light and incubated for 20 min at room temperature. The plates were read for fluorescence intensity at ex: 480/em: 540 using ViewLux microplate imager for Envision spectrofluoroimeters pIC50 data, curve and QC analysis was conducted by using XL fit module in Excel.

[3] = lower bounds, read-out: pIC50 values in the PED6 assay (converted)
[4] = read-out: rhLp-PLA2 (PED6 assay) (pIC50) (converted)

IC50 [1]	IC50 [2, 3]	IC50 [2, 4]	SMILES
≤ 100 nM	≤ 1 nM		CC1(C)Cn2c(cc(OCc3cc(F)c(Oc4ccnc(F)c4)c(F)c3)nc2=O)N1 [Example E116, 7-((3,5-difluoro-4-((2-fluoropyridin-4-yl)oxy)benzyl)oxy)-2,2-dimethyl-2,3-dihydroimidazo[1,2-c]pyrimidin-5(1H)-one]
≤ 100 nM	≤ 1 nM		CN1c2cc(OCc3ccc(F)c(F)c3)nc(=O)n2CC1(C)C [Example E122, 7-((3,4-difluorobenzyl)oxy)-1,2,2-trimethyl-2-dihydroimidazo[1,2-c]pyrimidin-5(1H)-one]
≤ 100 nM	≤ 10 nM		CCN1c2cc(OCc3cccc(F)c3F)nc(=O)n2CC1(C)C [Example E66, 7-((2,3-difluorobenzyl)oxy)-1-ethyl-2,2-dimethyl-2,3-dihydroimidazo[1,2-c]pyrimidin-5(1H)-one]
≤ 100 nM	≤ 1 nM		C[C@@H]1Cn2c(cc(OCc3ccc(Oc4cncc(C(F)(F)F)c4)c(C#N)c3)nc2=O)N1C [Example E123, (R)-5-(((1,2-dimethyl-5-oxo-1,2,3,5-tetrahydroimidazo[1,2-c]pyrimidin-7-yl)oxy)methyl)-2-((5-(trifluoromethyl)pyridin-3-yl)oxy)benzonitrile]
≤ 100 nM	≤ 1 nM	0.0398 nM	CN1c2cc(OCc3cc(F)c(Oc4ccc(C(F)(F)F)nc4)c(F)c3)nc(=O)n2CC1(C)C [Example E60, 7-((3,5-difluoro-4-((6-(trifluoromethyl)pyridin-3-yl)oxy)benzyl)oxy)-1,2,2-trimethyl-2,3-dihydroimidazo[1,2-c]pyrimidin-5(1H)-one]
≤ 100 nM	≤ 1 nM		C[C@H]1Cn2c(cc(OCc3cc(F)c(Oc4ccc(C(F)(F)F)nc4)c(F)c3)nc2=O)N1 [Example E16, (S)-7-((3,5-difluoro-4-((6-(trifluoromethyl)pyridin-3-yl)oxy)benzyl)oxy)-2-methyl-2,3-dihydroimidazo[1,2-c]pyrimidin-5(1H)-one]
≤ 100 nM	≤ 1 nM		CN1c2cc(OCc3ccc(Oc4ccnc(Cl)c4)c(F)c3)nc(=O)n2CC1(C)C [Example E65, 7-((4-((2-chloropyridin-4-yl)oxy)-3-fluorobenzyl)oxy)-1,2,2-trimethyl-2,3-dihydroimidazo[1,2-c]pyrimidin-5(1H)-one]
≤ 100 nM	≤ 10 nM		[2H]C1([2H])n2c(cc(OCc3cccc(F)c3F)nc2=O)N(C)C1(C)C [Example E136, 7-((2,3-difluorobenzyl)oxy)-1,2,2-trimethyl-3,3-dideutero-2,3-dihydroimidazo[1,2-c]pyrimidin-5(1H)-one]
≤ 100 nM	≤ 10 nM		C[C@@H]1Cn2c(cc(OCc3ccc(F)c(C#N)c3)nc2=O)N1C [Example E53, (R)-5-(((1,2-dimethyl-5-oxo-1,2,3,5-tetrahydroimidazo[1,2-c]pyrimidin-7-yl)oxy)methyl)-2-fluorobenzonitrile]
≤ 100 nM	≤ 10 nM		CN1c2cc(OCCc3cccs3)nc(=O)n2CC1(C)C [Example E8, 1,2,2-trimethyl-7-(2-(thiophen-2-yl)ethoxy)-2,3-dihydroimidazo[1,2-c]pyrimidin-5(1H)-one]
≤ 100 nM	≤ 1 nM		CC1(C)Cn2c(cc(OCc3cc(F)c(Oc4cncc(C(F)(F)F)c4)c(F)c3)nc2=O)N1 [Example E91, 7-((3,5-difluoro-4-((5-(trifluoromethyl)pyridin-3-yl)oxy)benzyl)oxy)-2,2-dimethyl-2,3-dihydroimidazo[1,2-c]pyrimidin-5(1H)-one]
≤ 100 nM	≤ 1 nM	0.1 nM	C[C@H]1Cn2c(cc(OCc3cc(F)c(Oc4cncc(C(F)(F)F)c4)c(F)c3)nc2=O)N1C [Example E56, (S)-7-((3,5-difluoro-4-((5-(trifluoromethyl)pyridin-3-yl)oxy)benzyl)oxy)-1,2-dimethyl-2,3-dihydroimidazo[1,2-c]pyrimidin-5(1H)-one]
≤ 100 nM	≤ 10 nM		CC1Cn2c(cc(OCc3ccc(F)c(C#N)c3)nc2=O)N1C (stereo not shown) [Example E121, 5-(((1,2-dimethyl-5-oxo-1,2,3,5-tetrahydroimidazo[1,2-c]pyrimidin-7-yl)oxy)methyl)-2-fluorobenzonitrile]
≤ 100 nM	≤ 10 nM		CCN1c2cc(OCc3cc(F)cc(F)c3)nc(=O)n2CC1(C)C [Example E129, 7-((3,5-difluorobenzyl)oxy)-1-ethyl-2,2-dimethyl-2,3-dihydroimidazo[1,2-c]pyrimidin-5(1H)-one]
≤ 100 nM	≤ 1 nM		CN1c2cc(OCc3cc(F)c(Oc4cncc(Cl)c4)c(F)c3)nc(=O)n2CC1(C)C [Example E113, 7-((4-((5-chloropyridin-3-yl)oxy)-3,5-difluorobenzyl)oxy)-1,2,2-trimethyl-2,3-dihydroimidazo[1,2-c]pyrimidin-5(1H)-one]
≤ 100 nM	≤ 1 nM		CC1Cn2c(cc(OCc3ccc(Oc4cc(F)cc(C(F)(F)F)c4)c(F)c3)nc2=O)N1C (stereo not shown) [Example E119, 7-((3-fluoro-4-(3-fluoro-5-(trifluoromethyl)phenoxy)benzyl)oxy)-1,2-dimethyl-2,3-dihydroimidazo[1,2-c]pyrimidin-5(1H)-one]
≤ 100 nM	≤ 1 nM		CC1(C)Cn2c(cc(OCc3ccc(Oc4ccc(Cl)nc4)c(F)c3)nc2=O)N1 [Example E44, 7-((4-((6-chloropyridin-3-yl)oxy)-3-fluorobenzyl)oxy)-2,2-dimethyl-2,3-dihydroimidazo[1,2-c]pyrimidin-5(1H)-one]
≤ 100 nM	≤ 1 nM		CC1(C)Cn2c(cc(OCc3ccc(Oc4cnc(C(F)(F)F)nc4)c(F)c3)nc2=O)N1 [Example E101, 7-((3-fluoro-4-((2-(trifluoromethyl)pyrimidin-5-yl)oxy)benzyl)oxy)-2,2-dimethyl-2,3-dihydroimidazo[1,2-c]pyrimidin-5(1H)-one]
≤ 100 nM	≤ 1 nM	0.2 nM	CN1c2cc(OCc3ccc(Oc4ccnc(F)c4)c(F)c3)nc(=O)n2CC1(C)C [Example E29, 7-((3-fluoro-4-((2-fluoropyridin-4-yl)oxy)benzyl)oxy)-1,2,2-trimethyl-2,3-dihydroimidazo[1,2-c]pyrimidin-5(1H)-one]
≤ 100 nM			C[C@H]1Cn2c(cc(OCc3cc(F)cc(F)c3)nc2=O)N1 [Example E85, (S)-7-((3,5-difluorobenzyl)oxy)-2-methyl-2,3-dihydroimidazo[1,2-c]pyrimidin-5(1H)-one]
≤ 100 nM			C[C@H]1Cn2c(cc(OCc3cccc(C#N)c3)nc2=O)N1 [Example E109, (S)-3-(((2-methyl-5-oxo-1,2,3,5-tetrahydroimidazo[1,2-c]pyrimidin-7-yl)oxy)methyl)benzonitrile]

From patent US9051325B2, “Bicyclic [5,6] imidazo pyrimodone compounds for use in the treatment of diseases or conditions mediated by Lp-PLA2” (GlaxoSmithKline Intellectual Property Development Limited, priority 2013, dated 2015)
